Measurements from patent US20130274127A1, “GENE EXPRESSION MARKERS FOR PREDICTION OF RESPONSE TO PHOSPHOINOSITIDE 3-KINASE INHIBITORS” (GENOMIC HEALTH, INC., priority 2012, published 2013).

What was measured:
Test in all cases: NCI-60 in vitro drug sensitivity testing (SRB)
Assay type in all cases: cell-based
HCC-2998 = settings: Homo sapiens, read-out: GDC-0941 GI50
Description: (§1) Cell lines used in this study were obtained from the National Cancer Institute Developmental Therapeutics program (NCI DTP) and were maintained in RPMI 1640 media (Invitrogen, Grand Island, N.Y.) containing 10% Fetal Bovine Serum (ATCC, Manassas, Va.). Cell lines were used within six months of receipt from the NCI DTP, abrogating the need for reauthentication.
(§2) 14, 2010 and Aug. 9, 2010.

OVCAR-5 = settings: Homo sapiens, OVCAR-5, read-out: GDC-0941 GI50
Description: as §1, §2

SF-268 = settings: Homo sapiens, SF-268, read-out: GDC-0941 GI50
Description: as §1, §2

NCI-H522 = settings: Homo sapiens, NCI-H522, read-out: GDC-0941 GI50
Description: as §1, §2

RPMI-8226 = settings: Homo sapiens, RPMI-8226, read-out: GDC-0941 GI50
Description: as §1, §2

UACC-62 = settings: Homo sapiens, UACC-62, read-out: GDC-0941 GI50
Description: as §1, §2

NCI-H23 = settings: Homo sapiens, NCI-H23, read-out: GDC-0941 GI50
Description: as §1, §2

SK-MEL-28 = settings: Homo sapiens, SK-MEL-28, read-out: GDC-0941 GI50
Description: as §1, §2

UACC-257 = settings: Homo sapiens, UACC-257, read-out: GDC-0941 GI50
Description: as §1, §2

HT29 = settings: Homo sapiens, HT-29, read-out: GDC-0941 GI50
Description: as §1, §2

SR = settings: Homo sapiens, read-out: GDC-0941 GI50
Description: as §1, §2

SK-OV-3 = settings: Homo sapiens, SK-OV-3, read-out: GDC-0941 GI50
Description: as §1, §2

SN12C = settings: Homo sapiens, read-out: GDC-0941 GI50
Description: as §1, §2

BT-549 = settings: Homo sapiens, BT-549, read-out: GDC-0941 GI50
Description: as §1, §2

SNB-75 = settings: Homo sapiens, SNB-75, read-out: GDC-0941 GI50
Description: as §1, §2

HOP-62 = settings: Homo sapiens, HOP-62, read-out: GDC-0941 GI50
Description: as §1, §2

LOX IMVI = settings: Homo sapiens, read-out: GDC-0941 GI50
Description: as §1, §2

M14 = settings: Homo sapiens, M14, read-out: GDC-0941 GI50
Description: as §1, §2

SF-539 = settings: Homo sapiens, SF-539, read-out: GDC-0941 GI50
Description: as §1, §2

SW-620 = settings: Homo sapiens, SW-620, read-out: GDC-0941 GI50
Description: as §1, §2

NCI-H460 = settings: Homo sapiens, NCI-H460, read-out: GDC-0941 GI50
Description: as §1, §2

SF-295 = settings: Homo sapiens, SF-295, read-out: GDC-0941 GI50
Description: as §1, §2

786-0 = settings: Homo sapiens, 786-0, read-out: GDC-0941 GI50
Description: as §1, §2

TK-10 = settings: Homo sapiens, TK-10, read-out: GDC-0941 GI50
Description: as §1, §2

EKVX = settings: Homo sapiens, read-out: GDC-0941 GI50
Description: as §1, §2

DU-145 = settings: Homo sapiens, DU-145, read-out: GDC-0941 GI50
Description: as §1, §2

MOLT-4 = settings: Homo sapiens, MOLT-4, read-out: GDC-0941 GI50
Description: as §1, §2

ACHN = settings: Homo sapiens, read-out: GDC-0941 GI50
Description: as §1, §2

A498 = settings: Homo sapiens, A498, read-out: GDC-0941 GI50
Description: as §1, §2

MCF7 = settings: Homo sapiens, MCF7, read-out: GDC-0941 GI50
Description: as §1

OVCAR-4 = settings: Homo sapiens, OVCAR-4, read-out: GDC-0941 GI50
Description: as §1

MDA-MB-231 = settings: Homo sapiens, MDA-MB-231, read-out: GDC-0941 GI50
Description: as §1

Work on `CS(=O)(=O)N1CCN(Cc2cc3nc(-c4cccc5[nH]ncc45)nc(N4CCOCC4)c3s2)CC1` [GDC-0941] yielded a GI50 (HCC-2998) of 1320 nM, a GI50 (OVCAR-5) of 117 nM and a GI50 (SF-268) of 741 nM. It also gave a GI50 (NCI-H522) of 372 nM, a GI50 (RPMI-8226) of 3470 nM and a GI50 (UACC-62) of 112 nM. It also gave a GI50 (NCI-H23) of 2290 nM, a GI50 (SK-MEL-28) of 617 nM and a GI50 (UACC-257) of 78 nM. For the same compound, the GI50 (HT29) was 120 nM, the GI50 (SR) was 1290 nM and the GI50 (SK-OV-3) was 83 nM. For the same compound, the GI50 (SN12C) was 229 nM, the GI50 (BT-549) was 32 nM and the GI50 (SNB-75) was 14 nM. The GI50 (HOP-62) was 363 nM, the GI50 (LOX IMVI) was 708 nM and the GI50 (M14) was 871 nM. It also gave a GI50 (SF-539) of 251 nM, a GI50 (SW-620) of 832 nM and a GI50 (NCI-H460) of 204 nM. The GI50 (SF-295) was 110 nM, the GI50 (786-0) was 295 nM and the GI50 (TK-10) was 550 nM. For the same compound, the GI50 (EKVX) was 195 nM, the GI50 (DU-145) was 355 nM and the GI50 (MOLT-4) was 155 nM. For the same compound, the GI50 (ACHN) was 162 nM, the GI50 (A498) was 123 nM and the GI50 (MCF7) was 55 nM. The GI50 (OVCAR-4) was 3800 nM and the GI50 (MDA-MB-231) was 1480 nM.
